Source: patent US9090583B2, “Benzopyrone estrogen receptor regulator” (BEIJING SHENOGEN PHARMA GROUP LTD., priority 2010, dated 2015)
Converted amounts (≈) assume the structure as drawn. Read-outs that look alike come from different tables or passages of the source.

How the values were obtained:
[1] = tested on: HEC-1A cells; assay: CellTiter-Glo Luminescent assay on endometrial cancer HEC-1A cells; type: cell-based, human; settings: 72 hours, read-out: Inhibition of the viability of endometrial cancer cells, IC50
Procedure: CellTiter-Glo® Luminescent Assay to Measure the Inhibitory Activity of the Compounds on In Vitro Growth of Endometrial Cancer HEC-1A Cells
HEC-1A cells are endometrial cancer cell lines only expressing ER-36. Human endometrial cancer HEC-1A cells were obtained from ATCC and maintained in DMEM and 10% fetal calf serum at 37° C., under 5% CO2 atmosphere. The cells were seeded on 96-well plate at a density of 6×10^3 cells per well. HEC-1A cells were treated with a test compound dissolved in DMSO at the concentrations of zero, 0.3 μM, 0.5 μM, 1 μM, 2 μM, 3 μM, 5 μM, 20 μM, 30 μM, 50 μM and 100 μM for 72 hours. Treated cells were examined by CellTiter-Glo® Luminescent Cell Viability Assay Kit (Promega), and luminescence values were recorded with Envision.

[2] = tested on: MCF7 cells; assay: CellTiter-Glo Luminescent Cell Viability Assay on ER-positive breast cancer MCF-7 cells; type: cell-based, human; settings: 72 hours, average ± standard deviation when tested more than 3 times, read-out: Inhibition of the viability of breast cancer cells, IC50
Outline: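 MCF7 cells (DMEM, 10% FCS, 37 °C) treated 72 h with compound at 0–100 μM (0.3, 0.5, 1, 2, 3, 5, 10, 20, 30, 50, 100 μM). Viability measured by CellTiter-Glo luminescence.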

[3] = tested on: K562 cells; assay: CellTiter-Glo Luminescent Cell Viability Assay on leukemia K562 cells; type: cell-based, human; settings: 72 hours, read-out: Inhibition of the viability of leukemia cells, IC50
Procedure: A: In Vitro CellTiter-Glo® Luminescent Cell Viability Assay on Leukemia K562 Cells
(§1) The leukemia K562 cells were obtained from ATCC and maintained in IMDM and 10% fetal calf serum at 37° C., under 5% CO2 atmosphere. The cells were seeded on 96-well plate at a density of 6×10^3 cells per well. K562 cells were treated with a test compound dissolved in DMSO at the concentrations of zero, 0.3 μM, 0.5 μM, 1 μM, 2 μM, 3 μM, 5 μM, 10 μM, 20 μM, 30 μM, 50 μM and 100 μM for 72 hours. Treated cells were examined by CellTiter-Glo® Luminescent Cell Viability Assay Kit (Promega), and luminescence values were recorded with Envision.

[4] = tested on: HL-60 cells; assay: CellTiter-Glo Luminescent Cell Viability Assay on leukemia HL-60 cells; type: cell-based, human; settings: 72 hours, read-out: Inhibition of the viability of leukemia cells, IC50
Procedure: B: In Vitro CellTiter-Glo® Luminescent Cell Viability Assay on Leukemia HL-60 Cells
as §1, with “HL-60” for “K562”

[5] = tested on: Hep3B2.1-7 cells; assay: MTT assay, in vitro growth of liver cancer Hep3B2.1-7 cells; type: cell-based; settings: 72 hours
Procedure: The liver cancer Hep3B2.1-7 cells were obtained from ATCC. Cells were incubated in 1640 culture medium with 5% fetal calf serum and 100 U/ml double-antibody in a cell incubator at 37° C., 5% CO2 atmosphere and passaged via conventional methods. The sample was dissolved in DMSO, formulated into 50 mg/ml stocking solution, and stored at 4° C. The test solutions at 50, 25, 12.5 and 6.25 μg/ml were formulated with culture medium immediately before use.
The adherent cells were digested with cell digestive solution, and then the exfoliated cells were collected and counted. The cell suspension was formulated with 1640 culture medium containing 5% fetal calf serum (5.0×10^4/ml). The cell suspension was seeded on 96-well plate with 100 μl/well, and maintained in a cell incubator at 37° C., 5% CO2 atmosphere for 24 hours. After that, the compounds at various concentrations were added, where solvent was taken as negative control and Taxol as positive control. 10 μl MTT (5 mg/ml) was added after 72 hours. The supernatant was removed after cultivation for 3 hours more, 150 μl DMSO was added and the formazan was dissolved on shaking. OD values were measured at 570 nm after homogeneous mixing, and inhibition rate and IC50 values were calculated based on the mean of OD values from 3 wells.

[6] = tested on: Molt-4 cells; assay: CellTiter-Glo Luminescent Cell Viability Assay on leukemia Molt-4 cells; type: cell-based; settings: 72 hours, read-out: Inhibition of the viability of leukemia cells, IC50
Procedure: C: In Vitro CellTiter-Glo® Luminescent Cell Viability Assay on Leukemia Molt-4 Cells
as §1, with “leukemia Molt-4” for “leukemia K562”, “in RPMI-1640” for “in IMDM”, “well. […]” for “well. K562”

[7] = tested on: CoC1 cells; assay: CellTiter-Glo Luminescent Cell Viability Assay on ovary cancer CoC1 cells; type: cell-based; settings: 72 hours, read-out: Inhibition of the viability of ovary cancer cells, IC50
Procedure: B: In Vitro CellTiter-Glo® Luminescent Cell Viability Assay on Ovary Cancer CoC1 Cells
as §1, with “ovary cancer CoC1” for “leukemia K562”, “Cancer hospital, Chinese Academy of Medical Sciences” for “ATCC”, “RPMI-1640” for “IMDM”, “CoC1” for “K562”, “10” for “10 μM, 20”

[8] = tested on: MDA-MB-231 cells; assay: CellTiter-Glo Luminescent Cell Viability Assay on ER-negative breast cancer MDA-MB-231 cells; type: cell-based; settings: average ± standard deviation when tested more than 3 times, read-out: Inhibition of the viability of breast cancer cells, IC50
Outline: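 Cells seeded at 6×10^3 per well in DMEM with 10% FCS and exposed 72 h to compound at 0 to 100 μM (twelve concentrations, DMSO vehicle). Viability measured by CellTiter-Glo luminescence.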

[9] = target: T1, ER-α36 (Homo sapiens, UniProt P03372); assay: Regulation of ER-α36 protein expression in HEC-1A cells (Western blot); type: cell-based; settings: serum-depleted HEC-1A cells; 1, 10, 50 and 100 nM; 24 and 48 hours; effect above the concentration of 50 nM
T1 construct: endogenous in cells; host or cells: HEC-1A human endometrial cancer cells
T1 sequence (P03372 1-310 isoform P03372-4): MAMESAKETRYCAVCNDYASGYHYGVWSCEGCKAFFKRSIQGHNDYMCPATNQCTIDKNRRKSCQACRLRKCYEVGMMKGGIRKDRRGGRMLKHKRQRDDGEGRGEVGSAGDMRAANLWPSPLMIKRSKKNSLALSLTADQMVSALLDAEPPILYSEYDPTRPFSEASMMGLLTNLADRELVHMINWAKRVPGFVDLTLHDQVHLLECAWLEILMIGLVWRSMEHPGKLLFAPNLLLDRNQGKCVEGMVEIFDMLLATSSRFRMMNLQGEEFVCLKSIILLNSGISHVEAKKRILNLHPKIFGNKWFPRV
Procedure: Taking endometrial cancer HEC-1A cells as an example, serum-depleted HEC-1A cells were treated with compounds at concentrations of 1, 10, 50 and 100 nM for 24 hours and 48 hours. The treated cells were washed with PBS and lysed with lysis buffer (a mixture of 1*PBS (pH7.4), 1% NP-40, 0.7 mMEDTA, and protease inhibitor from Roche). The lysates were boiled for 5 minutes in a SDS gel loading buffer (25 mM Tris-Cl pH 6.8; 10% SDS; 2% glycerol; 20% β-mercaptoethanol; 0.01% bromophenol blue) and separated on a 10% SDS-PAGE gel. After electrophoresis, the proteins were transferred onto PVDF membrane (Millipore Transfer Membrane). The membrane was probed with Rabbit anti-ER36 antibody which is specific to 20 amino acid polypeptides at C-terminus of ER-α36. Then the membrane was incubated with an HRP-conjugated secondary antibody and visualized with ECL detection reagents.

Compound | IC50 [1] | IC50 [2] | IC50 [3] | IC50 [4] | Inhibition on liver cancer cells, IC50 [5] | IC50 [6] | IC50 [7] | IC50 ([8]; 72 hours) | IC50 ([5]; read-out: Inhibition on liver cancer cells, IC50) | expression of ER-36 in cells [9] | IC50 ([8]; Homo sapiens, MDA-MB-231, 72 h)
2-(-fluoro-4-chlorophenyl)-5,7-dihydroxy-3-methoxy-6,8-di(3-methyl-2-buten-1-yl)-4H-benzopyran-4-one [Compound 5] | 7.14 µM | 6.73 ± 1.58 µM | 12 µM | 8.96 µM | 1.45 µg/mL | 9.13 µM | 6.91 µM | 7.03 ± 1.06 µM |  |  | 
COc1c(-c2ccc(C(F)(F)F)c(F)c2)oc2c(CC=C(C)C)c(O)c(CC=C(C)C)c(O)c2c1=O [Compound 6, 2-(3-fluoro-4-trifluoromethylphenyl)-5,7-dihydroxy-3-methoxy-6,8-di(3-methyl-2-butylene-1-yl)-4H-benzopyran-4-one] | 4.02 µM | 5.14 ± 0.47 µM | > 100 µM | > 100 µM |  | > 100 µM |  | 7.06 ± 2.13 µM |  |  | 
COc1c(-c2ccc(C(F)(F)F)cc2)oc2c(CC=C(C)C)c(O)c(CC=C(C)C)c(O)c2c1=O [Compound 15, 2-(4-trifluoromethylphenyl)-5,7-dihydroxy-3-methoxy-6,8-di(3-methyl-2-butylene-1-yl)-4H-benzopyran-4-one] | 8.35 µM | 8.28 ± 2.2 µM | 12.4 µM | 15.7 µM | 0.00138 µg/mL | 13.2 µM |  | 9.91 ± 0.11 µM |  |  | 
COc1c(-c2ccc3nccnc3c2)oc2c(CC=C(C)C)c(O)c(CC=C(C)C)c(O)c2c1=O [Compound 18, 2-(quinoxalin-6-yl)-5,7-dihydroxy-3-methoxy-6,8-di(3-methyl-2-butylene-1-yl)-4H-benzopyran-4-one] | 13.8 µM | 12.03 ± 0.09 µM | > 100 µM | > 100 µM |  | 14.2 µM |  | 11.9 ± 0.4 µM |  |  | 
CC(C)=CCc1c(O)c(CC=C(C)C)c2oc(-c3ccc(C(F)(F)F)cc3)c(O)c(=O)c2c1O [Compound 98, 2-(4-trifluoromethylphenyl)-3,5,7-trihydroxy-6,8-di(3-methyl-2-buten-1-yl)-4H-benzopyran-4-one] |  |  |  |  |  |  |  |  | 0.0144 µg/mL (≈ 0.0303 µM) | dramatically reduced | 1.62 µM
